Reference: patent US9120795B2, “Crystalline form of a β-lactamase inhibitor” (Cubist Pharmaceuticals, Inc., priority 2013, dated 2015)

Tested on: Kpn clinical, KPC-2
Assay: Synergy MIC (sMIC) assay
Type: cell-based, Klebsiella pneumoniae
Settings: KPC-2, clinical Kpn; CXA-101 at 4 μg/mL
Description: The synergy MIC (sMIC) assay determines the concentration of the BLI required to potentiate the activity of a fixed concentration of a β-lactam antibiotic against β-lactamase producing bacterial strains. The experimental protocol was performed according to Clinical and Laboratory Standards Institute (CLSI) guidelines with modifications as described below (CLSI guidelines can be derived from the CLSI document M07-A9 published in January 2012: “Methods for Dilution Antimicrobial Susceptibility Tests for Bacteria That Grow Aerobically; Approved Standard-Ninth Edition”). […]
Plates were incubated for 18-20 hours at 37° C. with aeration (200 rpm). Following incubation, growth was confirmed visually placing plates over a viewing apparatus (stand with a mirror underneath) and then OD600 was measured using a SpectraMax 340PC384 plate reader (Molecular Devices, Sunnyvale, Calif.). Growth was defined as turbidity that could be detected with the naked eye or achieving minimum OD600 of 0.1. sMIC values were defined as the lowest concentration producing no visible turbidity. […]

O=C1N2C[C@@H](CC[C@H]2c2nnco2)N1OS(=O)(=O)[O-].[Na+] [Hydrate 1, sodium (2S,5R)-2-(1,3,4-oxadiazol-2-yl)-7-oxo-1,6-diazabicyclo[3.2.1]octan-6-yl sulfate] was tested, and the sMIC was “C (C = 4-8 μg/mL)”.
